The values that follow come from US11098027B2, “Therapeutic heterocyclic compounds” (Gilead Sciences, Inc., priority 2018, dated 2021).

pEC50: −log10 of the molar value.

The assay deals with T1, IDO1 (Homo sapiens, UniProt P14902).
T1 construct: HeLa cells were treated with a test compound in the presence of IFNγ, which induces IDO1 expression; host or cells: H1-HeLa cells, IDO1 induced with IFNγ
T1 sequence (P14902 whole entry): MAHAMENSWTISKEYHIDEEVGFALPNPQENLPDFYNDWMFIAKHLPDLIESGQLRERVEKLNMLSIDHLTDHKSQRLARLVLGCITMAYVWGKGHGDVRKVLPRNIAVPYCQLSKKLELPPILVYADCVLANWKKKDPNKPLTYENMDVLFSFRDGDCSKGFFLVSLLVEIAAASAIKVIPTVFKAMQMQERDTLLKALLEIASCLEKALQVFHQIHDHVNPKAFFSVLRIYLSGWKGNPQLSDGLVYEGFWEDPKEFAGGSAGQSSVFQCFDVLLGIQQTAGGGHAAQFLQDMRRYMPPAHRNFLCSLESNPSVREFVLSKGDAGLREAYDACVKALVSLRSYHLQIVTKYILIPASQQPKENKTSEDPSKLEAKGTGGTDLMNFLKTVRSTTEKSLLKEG
The assay can be described thus: Cell-based (HeLa) assay for measurement of IDO1 inhibition (kynurenine levels in supernatant). The following applies: H1-HeLa cells, IDO1 induced with IFNγ, 48 hour incubation, kynurenine read by absorbance at 480 nm; geometric mean of a minimum of four determinations. The procedure: Example B-1. Cell-Based (HeLa) Assay for Measurement of IDO1 Inhibition
To measure IDO1 inhibition in tissue culture, HeLa cells were treated with a test compound in the presence of IFNγ, which induces IDO1 expression. Following incubation, cell supernatants were assayed for kynurenine levels, an indicator of IDO1 activity.
The following day, the test compounds were added in DMSO (0.5% final) at various concentrations, and IDO1 was inducibly expressed by the addition of 50 uL/well of 50 ng/mL of INFγ (Peprotech #300-02) in cell plating media. As a positive control, 50 uL of the cell plating media without IFNγ was added to several wells. Following a 48 hour incubation, the plates were spun down at 1,200 RPM for 5 min at 10° C. 65 μL/well of the supernatant was then transferred to new 384-well plates (Thermo #262160) that contained 10 uL/well of 30% TCA (Sigma # TO699), and the plates were sealed and incubated at 60° C. for 30 min. The plates were then centrifuged for 15 min at 2,000 RPM at 10° C. 40 μL/well of the supernatant was transferred to new 384-well plates (Thermo #262160) and was reacted with 40 μL/well of 2% (w/v) p-dimethlyaminobenzaldehyde (Sigma #156417) in glacial acetic acid (Sigma #A6283). The reaction was incubated at room temperature for 10 min and absorbance at 480 nm was read using a PerkinElmer Envision plate reader.
Data in Table 1 were normalized based on positive (−IFNγ) and negative (+IFNγ) controls and EC50 values were calculated from the fit of the dose—response curves to a four-parameter equation. All EC50 values represent geometric mean values of a minimum of four determinations. These assays generally produced results within 2-fold of the reported mean
In the case of `CC1(C)C(=O)N(c2ncccn2)c2cccc(-c3ccc(C(F)(F)F)c(C(=O)Nc4ccc(F)cc4)c3)c21` [Compound 1, 5-(3,3-dimethyl-2-oxo-1-(pyrimidin-2-yl)indolin-4-yl)-N-(4-fluorophenyl)-2-(trifluoromethyl)benzamide], the pEC50 – broadly, −log10 of the EC50, conventionally taken in molar units – was 8.00.
Next, `CC1(C)C(=O)N(c2ccccn2)c2cccc(-c3ccc(C(F)(F)F)c(C(=O)Nc4ccc(F)cc4)c3)c21` [Example 2, 5-(3,3-dimethyl-2-oxo-1-(pyridin-2-yl)indolin-4-yl)-N-(4-fluorophenyl)-2-(trifluoromethyl)benzamide]: 7.96.
The compound `CC1(C)C(=O)N(c2ccncn2)c2cccc(-c3ccc(C(F)(F)F)c(C(=O)Nc4ccc(F)cc4)c3)c21` [Example 3, 5-(3,3-dimethyl-2-oxo-1-(pyrimidin-4-yl)indolin-4-yl)-N-(4-fluorophenyl)-2-(trifluoromethyl)benzamide] showed a pEC50 of 7.96.
`CC1(C)C(=O)N(c2cnccn2)c2cccc(-c3ccc(C(F)(F)F)c(C(=O)Nc4ccc(F)cc4)c3)c21` [Example 4, 5-(3,3-dimethyl-2-oxo-1-(pyrazin-2-yl)indolin-4-yl)-N-(4-fluorophenyl)-2-(trifluoromethyl)benzamide] gave a pEC50 of 7.96.
The figure for `CC1(C)C(=O)N(c2cc[nH]n2)c2cccc(-c3ccc(C(F)(F)F)c(C(=O)Nc4ccc(F)cc4)c3)c21` [Example 5, 5-(3,3-dimethyl-2-oxo-1-(1H-pyrazol-3-yl)indolin-4-yl)-N-(4-fluorophenyl)-2-(trifluoromethyl)benzamide] is 7.89.
The compound `CC1(C)C(=O)N(c2cccnc2)c2cccc(-c3ccc(C(F)(F)F)c(C(=O)Nc4ccc(F)cc4)c3)c21` [Example 7, 5-(3,3-dimethyl-2-oxo-1-(pyridin-3-yl)indolin-4-yl)-N-(4-fluorophenyl)-2-(trifluoromethyl)benzamide] had a pEC50 of 7.72.
Next, `CC1(C)C(=O)N(c2ccncc2)c2cccc(-c3ccc(C(F)(F)F)c(C(=O)Nc4ccc(F)cc4)c3)c21` [Example 8, 5-(3,3-dimethyl-2-oxo-1-(pyridin-4-yl)indolin-4-yl)-N-(4-fluorophenyl)-2-(trifluoromethyl)benzamide]: 7.62; `Cc1ccc(-c2cccc3c2C(C)(C)C(=O)N3c2ncccn2)cc1C(=O)Nc1ccc(F)cc1` [Example 9, 5-(3,3-dimethyl-2-oxo-1-(pyrimidin-2-yl)indolin-4-yl)-N-(4-fluorophenyl)-2-methylbenzamide]: 7.48.
Next, `Cc1ccc(-c2cccc3c2C(C)(C)C(=O)N3c2ccccn2)cc1C(=O)Nc1ccc(F)cc1` [Example 10, 5-(3,3-dimethyl-2-oxo-1-(pyridin-2-yl)indolin-4-yl)-N-(4-fluorophenyl)-2-methylbenzamide]: 7.47; `CC1(C)C(=O)N(c2c[nH]cn2)c2cccc(-c3ccc(C(F)(F)F)c(C(=O)Nc4ccc(F)cc4)c3)c21` [Example 11, 5-(1-(1H-imidazol-4-yl)-3,3-dimethyl-2-oxoindolin-4-yl)-N-(4-fluorophenyl)-2-(trifluoromethyl)benzamide]: 7.39.
Next, `Cc1ncc(-c2cccc3c2C(C)(C)C(=O)N3c2ccccn2)cc1C(=O)Nc1ccc(F)cc1` [Example 12, 5-(3,3-dimethyl-2-oxo-1-(pyridin-2-yl)indolin-4-yl)-N-(4-fluorophenyl)-2-methylnicotinamide]: 7.18; `Cc1ncc(-c2cccc3c2C(C)(C)C(=O)N3c2cccnc2)cc1C(=O)Nc1ccc(F)cc1` [Example 13, 5-(3,3-dimethyl-2-oxo-1-(pyridin-3-yl)indolin-4-yl)-N-(4-fluorophenyl)-2-methylnicotinamide]: 7.03; `Cc1ncc(-c2cccc3c2C(C)(C)C(=O)N3c2ncccn2)cc1C(=O)Nc1ccc(F)cc1` [Example 14, 5-(3,3-dimethyl-2-oxo-1-(pyrimidin-2-yl)indolin-4-yl)-N-(4-fluorophenyl)-2-methylnicotinamide]: 6.98.
In turn, `Cc1ncc(-c2cccc3c2C(C)(C)C(=O)N3c2cnccn2)cc1C(=O)Nc1ccc(F)cc1` [Example 15, 5-(3,3-dimethyl-2-oxo-1-(pyrazin-2-yl)indolin-4-yl)-N-(4-fluorophenyl)-2-methylnicotinamide] had a pEC50 of 6.28.
Next, `CC1(C)C(=O)N(Cc2ncccn2)c2cccc(-c3ccc(C(F)(F)F)c(C(=O)Nc4ccc(F)cc4)c3)c21` [Example 16, 5-(3,3-dimethyl-2-oxo-1-(pyrimidin-2-ylmethyl)indolin-4-yl)-N-(4-fluorophenyl)-2-(trifluoromethyl)benzamide]: 6.09; `CC1(C)C(=O)N(c2ccccn2)c2nccc(-c3ccc(C(F)(F)F)c(C(=O)Nc4ccc(F)cc4)c3)c21` [Example 17, 5-(3,3-dimethyl-2-oxo-1-(pyridin-2-yl)-2,3-dihydro-1H-pyrrolo[2,3-b]pyridin-4-yl)-N-(4-fluorophenyl)-2-(trifluoromethyl)benzamide]: 7.89; `CC1(C)C(=O)N(c2cn[nH]c2)c2cccc(-c3ccc(C(F)(F)F)c(C(=O)Nc4ccc(F)cc4)c3)c21` [Example 18, 5-(3,3-dimethyl-2-oxo-1-(1H-pyrazol-4-yl)indolin-4-yl)-N-(4-fluorophenyl)-2-(trifluoromethyl)benzamide]: 7.80.
Next, `CC1(C)C(=O)N(c2cccnc2)c2nccc(-c3ccc(C(F)(F)F)c(C(=O)Nc4ccc(C#N)cn4)c3)c21` [Example 19, N-(5-cyanopyridin-2-yl)-5-(3,3-dimethyl-2-oxo-1-(pyridin-3-yl)-2,3-dihydro-1H-pyrrolo[2,3-b]pyridin-4-yl)-2-(trifluoromethyl)benzamide]: 7.48; `CC1(C)C(=O)N(c2cncc(F)c2)c2cccc(-c3cnc(C(F)(F)F)c(C(=O)Nc4ccc(F)cc4)c3)c21` [Example 20, N-(4-fluorophenyl)-5-(1-(5-fluoropyridin-3-yl)-3,3-dimethyl-2-oxoindolin-4-yl)-2-(trifluoromethyl)nicotinamide]: 7.44.
Next, `CC1(C)C(=O)N(c2ncccn2)c2cccc(-c3ccc(C(F)(F)F)c(C(=O)Nc4cccnc4)c3)c21` [Example 21, 5-(3,3-dimethyl-2-oxo-1-(pyrimidin-2-yl)indolin-4-yl)-N-(pyridin-3-yl)-2-(trifluoromethyl)benzamide]: 7.01; `Cc1ccc(-c2cccc3c2[nH]c(=O)n3-c2cccc(F)c2F)cc1C(=O)Nc1ccc(F)cc1` [Example 22, 5-(1-(2,3-difluorophenyl)-2-oxo-2,3-dihydro-1H-benzo[d]imidazol-4-yl)-N-(4-fluorophenyl)-2-methylbenzamide]: 7.21.
For `Cn1cc(N2C(=O)C(C)(C)c3c(-c4ccc(C(F)(F)F)c(C(=O)Nc5ccc(F)cc5)c4)cccc32)cn1` [Example 23, 5-(3,3-dimethyl-1-(1-methyl-1H-pyrazol-4-yl)-2-oxoindolin-4-yl)-N-(4-fluorophenyl)-2-(trifluoromethyl)benzamide], the pEC50 is 6.51.
Next, `CC1(C)C(=O)N(c2ncccn2)c2cccc(-c3ccc(OC(F)(F)F)c(C(=O)Nc4ccc(F)cc4)c3)c21` [Example 24, 5-(3,3-dimethyl-2-oxo-1-(pyrimidin-2-yl)indolin-4-yl)-N-(4-fluorophenyl)-2-(trifluoromethoxy)benzamide]: 7.32.
On to `CC1(C)C(=O)N(c2ncccn2)c2cccc(-c3cc(C(=O)Nc4ccc(F)cc4)c(C(F)(F)F)cn3)c21` [Example 25, 2-(3,3-dimethyl-2-oxo-1-(pyrimidin-2-yl)indolin-4-yl)-N-(4-fluorophenyl)-5-(trifluoromethyl)isonicotinamide], for which the negative logarithm of the EC50 (pEC50) was 7.41.
`CC1(C)C(=O)N(c2ncccn2)c2cccc(-c3ccc(C(F)(F)F)c(C(=O)Nc4ccncc4)c3)c21` [Example 26, 5-(3,3-dimethyl-2-oxo-1-(pyrimidin-2-yl)indolin-4-yl)-N-(pyridin-4-yl)-2-(trifluoromethyl)benzamide] had a pEC50 of 7.36.
The figure for `CC1(C)C(=O)N(c2ccccn2)c2nccc(-c3ccc(C(F)(F)F)c(C(=O)Nc4ccc(F)c(F)c4)c3)c21` [Example 27, N-(3,4-difluorophenyl)-5-(3,3-dimethyl-2-oxo-1-(pyridin-2-yl)-2,3-dihydro-1H-pyrrolo[2,3-b]pyridin-4-yl)-2-(trifluoromethyl)benzamide] is 7.20.
Next, `CC1(C)C(=O)N(c2ccccn2)c2nccc(-c3ccc(C(F)(F)F)c(C(=O)Nc4ccc(F)cn4)c3)c21` [Example 28, 5-(3,3-dimethyl-2-oxo-1-(pyridin-2-yl)-2,3-dihydro-1H-pyrrolo[2,3-b]pyridin-4-yl)-N-(5-fluoropyridin-2-yl)-2-(trifluoromethyl)benzamide]: 7.44.
